Assay results reported in article PMC7710018, “Restoration of motor learning in a mouse model of Rett syndrome following long-term treatment with a novel small-molecule activator of TrkB” (Disease Models & Mechanisms, 2020).
Where two headings read alike, the source gives them in different places.

Key:
Assay in all cases: Cerep ExpresSProfile radioligand binding
β1 (h) = target: T1, β1 (h) (Homo sapiens, UniProt P08588); conditions: 10 micromolar; agonist radioligand; read-out: % Inhibition of Control Specific Binding 1st
T1 construct: purchased Cerep (ExpresSProfile)
Method: (§1) To evaluate the relative binding specificity of LM22A-4 ([Massa et al., 2010]) and PTX-BD4-3, binding to a broad range of 55 pharmacologically relevant receptors, including numerous neurotransmitter and G-protein coupled receptors was assessed using standard radioligand competition binding assays (ExpressSProfile) performed by Cerep, Inc. (Seattle, WA, USA). In addition, ADME-Tox analysis was performed by Cerep, Inc. All experimental conditions are described on the Cerep website (www.cerep.fr). […]
(§2) Table S1. In vitro binding assays. An ExpresSProfile screen of PTX-BD4-3 binding to a panel of pharmacologically relevant receptors was conducted by Cerep, Inc.
(§3) (Eurofins Panlabs, MO). The results are expressed as percent inhibition of control specific binding obtained in the presence of 10 micromolar PTX-BD4-3. In this assay, values below 50% indicate no specific binding of PTX-BD4-3. The assay was negative for PTX-BD4-3 binding to all of the 55 receptors in the screen.
(§4) (also on this page, place not known: 2B 5‐HT 3 5‐HT 5a 5‐HT 6 5‐HT 7 (agonis t VPAC 1 V 1 Ca 2+ K V SK Ca Na + Cl ‐ 5‐HT Disease Models & Mechanisms: doi:10.1242/dmm.044685: Supplementary information Disease Models & Mechanisms • Supplementary information)

M1 (h) = target: T2, M1 (h) (Homo sapiens, UniProt P11229); conditions: 10 micromolar, antagonist radioligand
T2 construct: purchased Cerep (ExpresSProfile)
T2 sequence (P11229 1-460): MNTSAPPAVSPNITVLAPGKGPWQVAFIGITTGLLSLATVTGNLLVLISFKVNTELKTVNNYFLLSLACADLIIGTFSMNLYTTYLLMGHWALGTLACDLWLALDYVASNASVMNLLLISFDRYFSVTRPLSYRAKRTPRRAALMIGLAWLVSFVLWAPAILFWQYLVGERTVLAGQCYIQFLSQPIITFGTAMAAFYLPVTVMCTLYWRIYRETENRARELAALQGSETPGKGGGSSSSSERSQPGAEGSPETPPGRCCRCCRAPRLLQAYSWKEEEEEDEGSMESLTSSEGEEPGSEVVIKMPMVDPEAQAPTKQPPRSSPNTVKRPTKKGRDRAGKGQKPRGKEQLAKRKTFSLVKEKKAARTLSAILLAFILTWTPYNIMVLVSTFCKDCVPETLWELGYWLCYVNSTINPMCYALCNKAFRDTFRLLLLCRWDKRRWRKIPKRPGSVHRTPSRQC
Method: as §1, §2, §3, §4

κ (KOP) = target: T3, κ (KOP) (Rattus norvegicus, UniProt P34975); conditions: 10 micromolar; agonist radioligand; read-out: % Inhibition of Control Specific Binding 1st
T3 construct: purchased Cerep (ExpresSProfile)
Method: as §1, §2, §3, §4

NOP (ORL1) (h) = target: T4, NOP (ORL1) (h) (Homo sapiens, UniProt P41146); conditions: 10 micromolar, agonist radioligand
T4 construct: purchased Cerep (ExpresSProfile)
Method: as §1, §2, §3, §4

[1] = target: T5, norepinephrine transporter (h) (Homo sapiens, UniProt P23975); conditions: 10 micromolar, antagonist radioligand
T5 construct: Cerep, Inc. (contract screen)
Method: as §1, §2, §3, §4

5-HT transporter (h) = target: T6, 5-HT transporter (h) (Homo sapiens, UniProt P31645); conditions: 10 micromolar, antagonist radioligand
T6 construct: Cerep, Inc. (contract screen)
Method: as §1, §2, §3, §4

α1 (non-selective) = conditions: 10 micromolar; antagonist radioligand
Method: as §1, §2, §3, §4

NK3 (h) = target: T7, NK3 (h) (Homo sapiens, UniProt P29371); conditions: 10 micromolar; antagonist radioligand; read-out: % Inhibition of Control Specific Binding 2nd
T7 construct: purchased Cerep (ExpresSProfile)
Method: as §1, §2, §3, §4

Cl- channel (GABA-gated) = conditions: 10 micromolar; antagonist radioligand
Method: as §1, §2, §3, §4

Na+ channel (site 2) = conditions: 10 micromolar; antagonist radioligand
Method: as §1, §2, §3, §4

δ2 (DOP) (h) = target: T8, δ2 (DOP) (h) (Homo sapiens, UniProt P41143); conditions: 10 micromolar; agonist radioligand; read-out: % Inhibition of Control Specific Binding 2nd
T8 construct: purchased Cerep (ExpresSProfile)
Method: as §1, §2, §3, §4

dopamine transporter (h) = target: T9, dopamine transporter (h) (Homo sapiens, UniProt Q01959); conditions: 10 micromolar, antagonist radioligand
T9 construct: Cerep, Inc. (contract screen)
Method: as §1, §2, §3, §4

NTS1 (NT1) (h) = target: T10, NTS1 (NT1) (h) (Homo sapiens, UniProt P30989); conditions: 10 micromolar, agonist radioligand
T10 construct: purchased Cerep (ExpresSProfile)
Method: as §1, §2, §3, §4

sst (non-selective) = conditions: 10 micromolar; agonist radioligand
Method: as §1, §2, §3, §4

H2 (h) = target: T11, H2 (h) (Homo sapiens, UniProt P25021); conditions: 10 micromolar; antagonist radioligand; read-out: % Inhibition of Control Specific Binding 1st
T11 construct: purchased Cerep (ExpresSProfile)
Method: as §1, §2, §3, §4

α2 (non-selective) = conditions: 10 micromolar; antagonist radioligand
Method: as §1, §2, §3, §4

M3 (h) = target: T12, M3 (h) (Homo sapiens, UniProt P20309); conditions: 10 micromolar; antagonist radioligand; read-out: % Inhibition of Control Specific Binding 2nd
T12 construct: purchased Cerep (ExpresSProfile)
Method: as §1, §2, §3, §4

M2 (h) = target: T13, M2 (h) (Homo sapiens, UniProt P08172); conditions: 10 micromolar; antagonist radioligand; read-out: % Inhibition of Control Specific Binding 1st
T13 construct: purchased Cerep (ExpresSProfile)
Method: as §1, §2, §3, §4

[2] = test system: Ca2+ channel (L, verapamil site) (phenylalkylamine); conditions: 10 micromolar; antagonist radioligand
Method: as §1, §2, §3, §4

KV channel = conditions: 10 micromolar; antagonist radioligand
Method: as §1, §2, §3, §4

5-HT2B (h) = target: T14, 5-HT2B (h) (Homo sapiens, UniProt P41595); conditions: 10 micromolar, agonist radioligand
T14 construct: Cerep, Inc. (contract screen)
Method: as §1, §2, §3, §4

[3] = read-out: % Inhibition of Control Specific Binding 1st
[4] = read-out: % Inhibition of Control Specific Binding 2nd
[5] = read-out: % Inhibition of Control Specific Binding Mean

T10 sequence (P30989 whole entry): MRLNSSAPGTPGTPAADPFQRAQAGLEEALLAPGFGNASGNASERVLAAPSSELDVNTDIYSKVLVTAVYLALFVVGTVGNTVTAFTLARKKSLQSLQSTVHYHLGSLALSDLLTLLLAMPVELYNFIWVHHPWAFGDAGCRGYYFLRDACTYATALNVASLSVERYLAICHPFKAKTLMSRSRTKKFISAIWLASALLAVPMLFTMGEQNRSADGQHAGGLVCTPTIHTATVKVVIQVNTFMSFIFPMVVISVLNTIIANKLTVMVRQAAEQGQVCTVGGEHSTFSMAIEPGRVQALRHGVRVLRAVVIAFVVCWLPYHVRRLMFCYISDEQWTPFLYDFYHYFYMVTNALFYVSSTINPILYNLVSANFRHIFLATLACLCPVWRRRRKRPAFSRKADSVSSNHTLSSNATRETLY
T9 sequence (Q01959 whole entry): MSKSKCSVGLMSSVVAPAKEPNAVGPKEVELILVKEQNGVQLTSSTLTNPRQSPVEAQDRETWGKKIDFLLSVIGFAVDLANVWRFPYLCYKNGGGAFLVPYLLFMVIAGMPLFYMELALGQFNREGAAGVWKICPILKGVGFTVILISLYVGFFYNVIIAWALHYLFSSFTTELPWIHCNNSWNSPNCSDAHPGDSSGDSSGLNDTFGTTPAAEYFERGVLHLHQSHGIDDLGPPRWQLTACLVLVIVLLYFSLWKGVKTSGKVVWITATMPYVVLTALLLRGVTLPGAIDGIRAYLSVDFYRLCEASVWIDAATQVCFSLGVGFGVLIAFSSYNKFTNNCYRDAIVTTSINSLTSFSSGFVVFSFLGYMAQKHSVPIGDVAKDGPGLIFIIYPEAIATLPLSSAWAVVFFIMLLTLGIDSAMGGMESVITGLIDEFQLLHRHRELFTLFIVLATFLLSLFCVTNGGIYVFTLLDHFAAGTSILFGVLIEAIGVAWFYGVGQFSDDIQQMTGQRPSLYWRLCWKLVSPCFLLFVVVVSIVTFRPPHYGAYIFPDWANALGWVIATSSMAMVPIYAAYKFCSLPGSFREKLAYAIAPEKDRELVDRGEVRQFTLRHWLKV
T5 sequence (P23975 whole entry): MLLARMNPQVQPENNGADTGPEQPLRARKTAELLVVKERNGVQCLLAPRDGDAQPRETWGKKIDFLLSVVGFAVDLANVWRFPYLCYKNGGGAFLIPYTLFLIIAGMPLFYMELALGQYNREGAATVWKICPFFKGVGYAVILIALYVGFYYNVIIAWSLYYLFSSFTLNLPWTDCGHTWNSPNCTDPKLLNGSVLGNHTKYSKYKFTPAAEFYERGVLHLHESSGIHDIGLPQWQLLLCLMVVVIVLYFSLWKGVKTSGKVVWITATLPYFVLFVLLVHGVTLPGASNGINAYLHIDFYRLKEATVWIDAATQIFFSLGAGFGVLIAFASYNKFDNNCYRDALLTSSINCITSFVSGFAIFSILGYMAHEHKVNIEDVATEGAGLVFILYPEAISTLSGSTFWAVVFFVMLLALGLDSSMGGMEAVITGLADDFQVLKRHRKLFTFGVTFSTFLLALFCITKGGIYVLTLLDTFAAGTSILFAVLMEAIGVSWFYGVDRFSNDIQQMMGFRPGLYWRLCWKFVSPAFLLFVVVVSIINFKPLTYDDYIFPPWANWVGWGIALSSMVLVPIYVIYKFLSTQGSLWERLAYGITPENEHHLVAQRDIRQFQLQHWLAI
T6 sequence (P31645 whole entry): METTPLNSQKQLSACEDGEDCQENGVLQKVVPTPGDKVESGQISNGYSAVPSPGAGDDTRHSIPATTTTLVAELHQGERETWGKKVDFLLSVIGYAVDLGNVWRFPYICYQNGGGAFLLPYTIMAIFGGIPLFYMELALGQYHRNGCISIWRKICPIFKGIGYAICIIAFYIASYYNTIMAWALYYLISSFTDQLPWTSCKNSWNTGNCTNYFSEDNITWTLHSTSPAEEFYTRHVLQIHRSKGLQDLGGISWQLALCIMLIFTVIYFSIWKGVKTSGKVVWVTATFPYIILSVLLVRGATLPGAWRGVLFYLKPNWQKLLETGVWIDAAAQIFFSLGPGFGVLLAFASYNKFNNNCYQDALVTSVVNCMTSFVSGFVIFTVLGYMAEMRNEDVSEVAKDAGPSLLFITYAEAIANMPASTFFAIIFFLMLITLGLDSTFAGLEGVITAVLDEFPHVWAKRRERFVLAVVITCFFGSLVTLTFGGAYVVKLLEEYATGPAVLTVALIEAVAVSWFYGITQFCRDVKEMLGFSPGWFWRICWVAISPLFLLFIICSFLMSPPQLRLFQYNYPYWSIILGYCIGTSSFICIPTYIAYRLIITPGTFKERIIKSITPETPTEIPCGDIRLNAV
T14 sequence (P41595 whole entry): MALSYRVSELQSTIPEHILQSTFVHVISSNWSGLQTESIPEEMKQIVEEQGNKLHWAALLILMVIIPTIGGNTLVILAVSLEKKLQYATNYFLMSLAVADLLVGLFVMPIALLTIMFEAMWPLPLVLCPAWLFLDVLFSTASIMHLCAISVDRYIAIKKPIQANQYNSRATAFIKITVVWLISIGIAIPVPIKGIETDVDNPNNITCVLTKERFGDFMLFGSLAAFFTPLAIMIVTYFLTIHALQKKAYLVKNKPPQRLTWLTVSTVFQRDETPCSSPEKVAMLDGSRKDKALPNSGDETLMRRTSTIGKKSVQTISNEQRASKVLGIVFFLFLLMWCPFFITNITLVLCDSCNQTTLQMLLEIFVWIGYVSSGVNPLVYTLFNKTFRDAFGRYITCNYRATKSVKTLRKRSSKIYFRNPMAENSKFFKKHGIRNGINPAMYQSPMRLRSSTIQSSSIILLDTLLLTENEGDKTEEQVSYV
T4 sequence (P41146 whole entry): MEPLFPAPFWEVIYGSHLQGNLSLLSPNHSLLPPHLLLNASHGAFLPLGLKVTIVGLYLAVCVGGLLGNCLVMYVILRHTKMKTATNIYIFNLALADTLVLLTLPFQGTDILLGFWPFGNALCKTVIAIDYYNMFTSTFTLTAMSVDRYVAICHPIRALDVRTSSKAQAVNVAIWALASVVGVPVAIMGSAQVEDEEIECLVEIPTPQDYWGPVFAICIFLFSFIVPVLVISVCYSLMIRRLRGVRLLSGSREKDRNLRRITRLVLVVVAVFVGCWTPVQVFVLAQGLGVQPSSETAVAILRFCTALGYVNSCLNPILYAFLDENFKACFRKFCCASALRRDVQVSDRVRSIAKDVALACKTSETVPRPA
T11 sequence (P25021 whole entry): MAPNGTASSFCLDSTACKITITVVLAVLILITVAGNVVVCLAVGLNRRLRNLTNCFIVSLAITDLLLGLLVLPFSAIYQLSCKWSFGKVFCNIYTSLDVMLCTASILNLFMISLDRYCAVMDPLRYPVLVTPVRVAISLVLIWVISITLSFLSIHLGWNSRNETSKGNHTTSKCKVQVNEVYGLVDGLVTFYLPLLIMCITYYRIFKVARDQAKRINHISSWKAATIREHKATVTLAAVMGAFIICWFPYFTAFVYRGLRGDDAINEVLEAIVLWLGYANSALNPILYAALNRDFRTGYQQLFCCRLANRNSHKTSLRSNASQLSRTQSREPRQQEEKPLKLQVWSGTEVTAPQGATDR
T12 sequence (P20309 whole entry): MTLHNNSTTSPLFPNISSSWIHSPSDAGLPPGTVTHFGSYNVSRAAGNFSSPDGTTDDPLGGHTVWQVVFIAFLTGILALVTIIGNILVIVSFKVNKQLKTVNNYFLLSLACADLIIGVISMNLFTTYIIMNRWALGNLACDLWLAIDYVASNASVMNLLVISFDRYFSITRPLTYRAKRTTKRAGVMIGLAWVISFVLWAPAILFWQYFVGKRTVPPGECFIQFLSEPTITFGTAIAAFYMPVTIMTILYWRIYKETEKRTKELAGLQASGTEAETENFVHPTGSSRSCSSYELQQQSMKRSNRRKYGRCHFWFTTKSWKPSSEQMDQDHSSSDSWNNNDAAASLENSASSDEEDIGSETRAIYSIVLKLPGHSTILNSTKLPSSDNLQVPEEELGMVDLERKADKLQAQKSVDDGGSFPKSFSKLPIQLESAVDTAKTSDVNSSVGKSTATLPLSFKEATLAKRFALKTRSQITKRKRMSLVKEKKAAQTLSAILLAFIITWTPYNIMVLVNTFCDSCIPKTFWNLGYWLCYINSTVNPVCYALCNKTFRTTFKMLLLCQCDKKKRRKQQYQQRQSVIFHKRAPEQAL
T7 sequence (P29371 whole entry): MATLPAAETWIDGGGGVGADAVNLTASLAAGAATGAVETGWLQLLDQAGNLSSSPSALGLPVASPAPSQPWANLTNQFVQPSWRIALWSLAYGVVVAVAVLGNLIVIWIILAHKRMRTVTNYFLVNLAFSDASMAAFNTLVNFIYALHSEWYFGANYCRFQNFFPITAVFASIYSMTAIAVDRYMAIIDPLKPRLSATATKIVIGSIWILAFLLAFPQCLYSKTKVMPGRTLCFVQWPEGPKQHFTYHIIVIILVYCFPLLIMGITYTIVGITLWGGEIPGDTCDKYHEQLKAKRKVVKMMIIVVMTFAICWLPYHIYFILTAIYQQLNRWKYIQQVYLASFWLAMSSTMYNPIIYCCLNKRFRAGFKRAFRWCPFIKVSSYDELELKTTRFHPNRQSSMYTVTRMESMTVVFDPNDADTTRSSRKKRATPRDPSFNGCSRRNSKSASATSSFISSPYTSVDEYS
T8 sequence (P41143 whole entry): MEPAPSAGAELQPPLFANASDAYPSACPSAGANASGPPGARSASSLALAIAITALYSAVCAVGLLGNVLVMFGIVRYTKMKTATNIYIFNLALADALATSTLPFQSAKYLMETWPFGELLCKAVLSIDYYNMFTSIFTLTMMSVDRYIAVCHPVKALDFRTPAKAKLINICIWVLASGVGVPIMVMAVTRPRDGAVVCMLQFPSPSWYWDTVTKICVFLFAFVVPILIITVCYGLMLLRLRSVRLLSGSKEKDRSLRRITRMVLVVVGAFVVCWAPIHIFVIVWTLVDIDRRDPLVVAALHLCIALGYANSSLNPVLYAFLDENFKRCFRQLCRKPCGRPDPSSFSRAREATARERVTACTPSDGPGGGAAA

## COCCN(C)C(=O)c1cc(C(=O)N(C)CCOC)cc(C(=O)N(C)CCOC)c1 [PTX-BD4-3, benzene-1,3,5-tricarboxylic acid tris-[(2-methoxy-ethyl)-methyl-amide]]
β1 (h)
  inhibition at 10 µM: 3.7%
M1 (h); [3]
  inhibition at 10 µM: 5%
M1 (h); [4]
  inhibition at 10 µM: 15%
M1 (h); [5]
  inhibition at 10 µM: 10%
κ (KOP)
  inhibition at 10 µM: 0.9%
NOP (ORL1) (h); [4]
  inhibition at 10 µM: 6.3%
NOP (ORL1) (h); [5]
  inhibition at 10 µM: 0.1%
[1]; [3]
  inhibition at 10 µM: 5.1%
[1]; [4]
  inhibition at 10 µM: 1.1%
[1]; [5]
  inhibition at 10 µM: 3.1%
5-HT transporter (h); [3]
  inhibition at 10 µM: 16.3%
5-HT transporter (h); [4]
  inhibition at 10 µM: 5.5%
5-HT transporter (h); [5]
  inhibition at 10 µM: 10.9%
α1 (non-selective)
  % Inhibition of Control Specific Binding 1st: 0.9%
NK3 (h)
  inhibition at 10 µM: 0.4%
Cl- channel (GABA-gated)
  % Inhibition of Control Specific Binding 1st: 2.7%
Na+ channel (site 2)
  % Inhibition of Control Specific Binding 1st: 0.6%
  % Inhibition of Control Specific Binding 2nd: 11.7%
  % Inhibition of Control Specific Binding Mean: 6.1%
δ2 (DOP) (h)
  inhibition at 10 µM: 1.9%
Dopamine transporter (h); [3]
  inhibition at 10 µM: 2.2%
Dopamine transporter (h); [4]
  inhibition at 10 µM: 0.9%
Dopamine transporter (h); [5]
  inhibition at 10 µM: 1.6%
NTS1 (NT1) (h); [3]
  inhibition at 10 µM: 11.2%
NTS1 (NT1) (h); [4]
  inhibition at 10 µM: 2.6%
NTS1 (NT1) (h); [5]
  inhibition at 10 µM: 6.9%
Sst (non-selective)
  % Inhibition of Control Specific Binding 1st: 5.7%
  % Inhibition of Control Specific Binding Mean: 0.3%
H2 (h)
  inhibition at 10 µM: 2.8%
α2 (non-selective)
  % Inhibition of Control Specific Binding 1st: 1.8%
  % Inhibition of Control Specific Binding 2nd: 4.7%
  % Inhibition of Control Specific Binding Mean: 3.2%
M3 (h)
  inhibition at 10 µM: 0.8%
M2 (h)
  inhibition at 10 µM: 6.3%
[2]
  % Inhibition of Control Specific Binding 1st: 0%
KV channel
  % Inhibition of Control Specific Binding 1st: 6.4%
5-HT2B (h); [3]
  inhibition at 10 µM: 12.6%
5-HT2B (h); [5]
  inhibition at 10 µM: 3.5%
